Patent publication US7518005B2, “Water-soluble anti-dandruff compounds and compositions thereof” (Galaxy Surfactants Limited, priority 2005, dated 2009)

Assays:
[1] = Viscosity booster effect in shampoo formulation; conditions: 15% active sodium lauryl ether sulfate, 2% booster
M. furfur [2] = assay: Zone of inhibition against M. furfur, comparison with other known anti-dandruff agents (Example 5); type: cell-based
From the text: M. furfur is one of the microorganism, which causes dandruff Method of Analysis: Zone of Inhibition Principle: Larger the zone of inhibition greater is the anti-dandruff activity.

M. furfur [3] = assay: Zone of inhibition of M. furfur in SLES, comparison with Undecylenic amido propyl betain (Example 7); type: cell-based
From the text: Undecylenic amido propyl betain is a reported anti-dandruff product, so Undecylenic amidopropyl dimethyl Hydroxy ethyl ammonium undecylenate was compared. Carried out of zone of inhibition of M. furfur against 1, 2%, 5% & 7% Undecylenic amido propyl betain in SLES and compared it with Undecylenic amido propyl dimethyl Hydroxy ethyl ammonium undecylenate

Compound	Comments (M. furfur [2]; Concent. 0.5%)	Zone of inhibition in mm (M. furfur [2]; Concent. 0.5%)	Comments (M. furfur [2]; Concent. 1%)	Zone of inhibition in mm (M. furfur [2]; Concent. 1%)	Comments (M. furfur [2]; Concent. 1.5%)	Zone of inhibition in mm (M. furfur [2]; Concent. 1.5%)	Comments (M. furfur [2]; Concent. 2%)	Zone of inhibition in mm (M. furfur [2]; Concent. 2%)	other results
Cocomonoethanolamide [CMEA]	–	–	–	–	–	–	–	–	Viscosity in cps at 28° C. ([1]; Sodium chloride 0.5%): 55 cps; Viscosity in cps at 28° C. ([1]; Sodium chloride 1.0%): 600 cps; Viscosity in cps at 28° C. ([1]; Sodium chloride 1.5%): 3000 cps; Viscosity in cps at 28° C. ([1]; Sodium chloride 2.0%): 11000 cps; Viscosity in cps at 28° C. ([1]; Sodium chloride 2.5%): 17000 cps
C=CCCCCCCCCC(=O)NCCO [Undecylenic mono ethanolamide]	Not effective	0 mm	Less	2 mm	Less	4 mm	Less	6 mm	–
Undecylenic monoethanol amido sulfosuccinate	Not effective	0 mm	Not effective	0 mm	Not effective	0 mm	Not effective	0 mm	–
C=CCCCCCCCCC(=O)NCCC[N+](C)(C)CCOCCO.[Cl-] [Undecylenic amidopropyl dimethyl Hydroxy ethoxy ethyl ammonium chloride]	Less	2 mm	Less	3 mm	Less	6 mm	Effective	8 mm	–
C=CCCCCCCCCC(=O)NCCC[N+](C)(C)CC(=O)[O-] [Undecylenic amidopropyl betaine]	–	–	–	–	–	–	–	–	Comments (M. furfur [3]; 1%): Less; Zone of inhibition in mm (M. furfur [3]; 1%): 3 mm; Comments (M. furfur [3]; 2%): Less; Zone of inhibition in mm (M. furfur [3]; 2%): 6 mm; Comments (M. furfur [3]; 5%): Less; Zone of inhibition in mm (M. furfur [3]; 5%): 6 mm; Comments (M. furfur [3]; 7%): Effective; Zone of inhibition in mm (M. furfur [3]; 7%): 8 mm
